Assay results: paper PMC5371667, “Targeting Bile Acid Receptors: Discovery of a Potent and Selective Farnesoid X Receptor Agonist as a New Lead in the Pharmacological Approach to Liver Diseases” (Frontiers in Pharmacology, 2017)
Read-outs that look alike come from different tables or passages of the source.

Tests used:
GST-fusion FXR-LBD = biological target: T1, GST-fusion FXR-LBD (Homo sapiens, UniProt Q96RI1); experiment: Alpha Screen coactivator (SRC-1 peptide) recruitment assay; format: biochemical; conditions: recruitment of SRC-1 co-activator peptide, Alfa Screen, Table 1; for Efficacy: 6-ECDCA = 100
T1 construct: 10 nM of purified GST-tagged FXR-LBD protein
T1 sequence (Q96RI1 262-486 limits assumed): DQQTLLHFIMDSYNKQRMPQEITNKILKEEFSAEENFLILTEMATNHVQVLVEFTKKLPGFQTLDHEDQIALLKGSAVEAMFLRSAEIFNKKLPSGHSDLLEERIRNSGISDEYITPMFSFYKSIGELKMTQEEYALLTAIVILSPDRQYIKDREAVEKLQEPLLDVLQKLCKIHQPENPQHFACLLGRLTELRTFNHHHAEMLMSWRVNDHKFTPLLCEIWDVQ
Description: Activation of FXR was determined by Alpha Screen Technology in a Coactivator Recruitment Assay. Anti-GST-coated acceptor beads were used to capture the GST-fusion FXR-LBD, whereas the biotinylated-SRC-1 peptide was captured by the streptavidin donor beads. Upon illumination at 680 nm, chemical energy is transferred from donor to acceptor beads across the complex streptavidin-donor/[…]-LBD/anti-GST-acceptor and a signal is produced. The assay was performed in white, low-volume, 384-well Optiplates (PerkinElmer) using a final volume of 25 μL containing final concentrations of 10 nM of purified GST-tagged FXR-LBD protein, 30 nM biotinylated SRC-1 peptide, 20 μg/mL anti-GST acceptor beads, and 10 μg/mL of streptavidin donor bead (PerkinElmer). The assay buffer contained 50 mM Tris (pH 7.4), 50 mM KCl and 1 mM DTT. The stimulation times with 1 μL of tested compound (dissolved in 50% DMSO/H2O) were fixed to 30 min at room temperature. The concentration of DMSO in each well was maintained at a final concentration of 2%. After the addition of the detection mix (acceptor and donor beads), the plates were incubated in the dark for 3 h at room temperature and then were read in an Envision microplate analyzer (PerkinElmer).

human GPBAR1 = biological target: T2, human GPBAR1 (Homo sapiens, UniProt Q8TDU6); experiment: GPBAR1 transactivation on HepG2 cells (CRE luciferase reporter); format: cell-based; conditions: compounds at 1 and 10 μM, TLCA 10 μM positive control
T2 construct: expressed in transfected cells; host or cells: HepG2
T2 sequence (Q8TDU6 1-330): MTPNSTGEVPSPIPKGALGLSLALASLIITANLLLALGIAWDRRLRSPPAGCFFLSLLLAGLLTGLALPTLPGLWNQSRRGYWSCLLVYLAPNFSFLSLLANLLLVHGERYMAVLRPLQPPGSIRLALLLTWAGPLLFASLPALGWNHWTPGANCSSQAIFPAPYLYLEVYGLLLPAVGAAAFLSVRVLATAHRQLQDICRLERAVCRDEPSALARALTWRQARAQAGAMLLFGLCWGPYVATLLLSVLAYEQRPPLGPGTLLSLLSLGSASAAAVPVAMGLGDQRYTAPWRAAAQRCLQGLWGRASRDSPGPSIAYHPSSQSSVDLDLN
Description: For FXR mediated transactivation, HepG2 cells were plated at 5 × 10^4 cells/well in a 24 well plate. Cells were transfected with 200 ng of the reporter vector p(hsp27)-TK-LUC containing a FXR response element (IR1) cloned from the promoter of heat shock protein 27 (hsp27), 100 ng of pSG5-FXR, 100 ng of pSG5-RXR, and 100 ng of pGL4.70 (Promega), a vector encoding the human Renilla gene. For GPBAR1 mediated transactivation, HepG2 cells were plated at 5 × 10^4 cells/well in a 24 well-plate and transfected with 200 ng of pGL4.29 (Promega), a reporter vector containing a cAMP response element (CRE) that drives the transcription of the luciferase reporter gene luc2P, with 100 ng of pCMVSPORT6-human GPBAR1, and with 100 ng of pGL4.70 Renilla. […] TLCA (10 μM) was used as a positive control for GPBAR1 activity.

hFXR = biological target: T3, hFXR (Homo sapiens, UniProt Q96RI1); experiment: FXR transactivation on HepG2 cells (luciferase reporter); format: cell-based
T3 construct: expressed in transfected cells; host or cells: HepG2
T3 sequence (Q96RI1 1-486): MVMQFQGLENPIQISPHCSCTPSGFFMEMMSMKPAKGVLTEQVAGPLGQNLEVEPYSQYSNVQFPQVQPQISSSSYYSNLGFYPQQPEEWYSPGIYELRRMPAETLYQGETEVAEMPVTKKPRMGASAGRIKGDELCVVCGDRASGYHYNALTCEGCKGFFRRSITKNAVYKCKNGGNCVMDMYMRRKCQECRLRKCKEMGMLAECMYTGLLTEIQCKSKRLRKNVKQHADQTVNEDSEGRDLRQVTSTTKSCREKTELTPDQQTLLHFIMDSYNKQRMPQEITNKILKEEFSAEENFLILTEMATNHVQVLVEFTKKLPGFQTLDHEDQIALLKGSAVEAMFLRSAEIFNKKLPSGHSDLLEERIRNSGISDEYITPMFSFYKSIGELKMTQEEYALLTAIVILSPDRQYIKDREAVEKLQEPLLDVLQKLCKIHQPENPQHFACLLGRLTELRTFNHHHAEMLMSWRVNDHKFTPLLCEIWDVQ
T3 sequence (P19793 1-462 partner): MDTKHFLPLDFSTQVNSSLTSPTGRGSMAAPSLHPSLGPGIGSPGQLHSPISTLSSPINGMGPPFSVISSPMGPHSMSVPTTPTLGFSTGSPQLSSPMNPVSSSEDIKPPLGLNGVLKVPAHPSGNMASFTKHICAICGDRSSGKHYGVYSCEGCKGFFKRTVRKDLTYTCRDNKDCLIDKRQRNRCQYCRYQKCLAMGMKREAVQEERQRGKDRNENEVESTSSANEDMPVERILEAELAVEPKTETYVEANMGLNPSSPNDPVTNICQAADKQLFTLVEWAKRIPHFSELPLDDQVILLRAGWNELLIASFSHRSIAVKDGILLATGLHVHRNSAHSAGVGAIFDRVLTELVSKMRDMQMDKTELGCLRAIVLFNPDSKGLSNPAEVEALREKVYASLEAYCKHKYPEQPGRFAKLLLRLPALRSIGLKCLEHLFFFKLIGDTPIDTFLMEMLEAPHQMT
Description: HepG2 (HB, 8065 from ATCC), an immortalized human epatocarcinoma cell line, was cultured and maintained at 37°C and 5% CO2 in E-MEM additioned with 10% FBS, 1% glutamine, and 1% penicillin/streptomycin. For FXR mediated transactivation, HepG2 cells were plated at 5 × 10^4 cells/well in a 24 well plate. Cells were transfected with 200 ng of the reporter vector p(hsp27)-TK-LUC containing a FXR response element (IR1) cloned from the promoter of heat shock protein 27 (hsp27), 100 ng of pSG5-FXR, 100 ng of pSG5-RXR, and 100 ng of pGL4.70 (Promega), a vector encoding the human Renilla gene. For GPBAR1 mediated transactivation, HepG2 cells were plated at 5 × 10^4 cells/well in a 24 well-plate and transfected with 200 ng of pGL4.29 (Promega), a reporter vector containing a cAMP response element (CRE) that drives the transcription of the luciferase reporter gene luc2P, with 100 ng of pCMVSPORT6-human GPBAR1, and with 100 ng of pGL4.70 Renilla. […]. TLCA (10 μM) was used as a positive control for GPBAR1 activity.
HepG2 cells were transfected as described above and then treated with increasing concentrations of compounds. At 18 h post stimulations, cellular lysates were assayed for luciferase and Renilla activities using the Dual-Luciferase Reporter assay system (E1980, Promega). Luminescence was measured using Glomax 20/20 luminometer (Promega). Luciferase activities were normalized with Renilla activities.

[1] = In vivo metabolic profile of compound 2 in mice (LC-MS); conditions: 50 mg/kg oral of compound 2, LC-MS
[2] = cited from earlier work
[3] = PBC patients, ref Mason et al., 2010

CCC1C(O)C2C3CCC(C(C)CCCO)C3(C)CCC2C2(C)CCC(N=[N+]=[N-])CC12 (stereo not shown) [compound 8]
Efficacy (GST-fusion FXR-LBD): 49

CCC1C(=O)C2C3CCC(C(C)CCC(=O)O)C3(C)CCC2C2(C)CCC(N=[N+]=[N-])CC12 (stereo not shown) [compound 1]
Efficacy (GST-fusion FXR-LBD): 32

CCC1C(=O)C2C3CCC(C(C)CCC(=O)O)C3(C)CCC2C2(C)CCC(N=[N+]=[N-])CC12 (stereo not shown) [compound 5]
Efficacy (GST-fusion FXR-LBD): 24

CCC1C(O)C2C3CCC(C(C)CCCO)C3(C)CCC2C2(C)CCC(N)CC12 (stereo not shown) [compound 11]
GPBAR1 transactivation (human GPBAR1): residual activity

CC[C@H]1[C@@H](O)C2C3CC[C@H]([C@H](C)CCC(=O)NCCS(=O)(=O)O)[C@@]3(C)CCC2[C@@]2(C)CC[C@H](N=[N+]=[N-])C[C@@H]12 (stereo partly shown) [compound 2a]
EC50 (hFXR; 10 nM to 25 μM, 18 h): 3950 nM
agonist activity toward FXR (hFXR; dose-response): full agonist activity
recovery in bile and plasma after administration of compound 2 [1]: efficiently recovered in bile and in plasma

CC[C@H]1[C@@H](O)[C@@H]2[C@H](CC[C@]3(C)[C@@H]([C@H](C)CCC(=O)O)CC[C@@H]23)[C@@]2(C)CC[C@@H](O)C[C@@H]12 [6-ECDCA]
patients with drug discontinuation caused by pruritus [2, 3]: 40%
patients with pruritus (itching) [2, 3]: 50–60%
patients with pruritus (itching) ([2]; patients with NASH, ref Neuschwander-Tetri et al., 2015): 23%

CCC1C(=O)C2C3CCC(C(C)CCC(=O)O)C3(C)CCC2C2(C)CCC(N)CC12 (stereo not shown) [compound 13]
GPBAR1 transactivation (human GPBAR1): residual activity

CCC1C(O)C2C3CCC(C(C)CCC(=O)O)C3(C)CCC2C2(C)CCC(N)CC12 (stereo not shown) [compound 14]
GPBAR1 transactivation (human GPBAR1): residual activity

CCC1C(O)C2C3CCC(C(C)CCCO)C3(C)CCC2C2(C)CCC(N=[N+]=[N-])CC12 (stereo not shown) [compound 3]
EC50 (GST-fusion FXR-LBD): 550 ± 80 nM
Efficacy (GST-fusion FXR-LBD): 55

CCC1C(O)C2C3CCC(C(C)CCCO)C3(C)CCC2C2(C)CCC(N=[N+]=[N-])CC12 (stereo not shown) [compound 4]
Efficacy (GST-fusion FXR-LBD): 39

CCC1C(O)C2C3CCC(C(C)CCC(=O)O)C3(C)CCC2C2(C)CCC(N=[N+]=[N-])CC12 (stereo not shown) [compound 6]
EC50 (GST-fusion FXR-LBD): 1380 ± 350 nM
Efficacy (GST-fusion FXR-LBD): 61

CCC1C(O)C2C3CCC(C(C)CCCO)C3(C)CCC2C2(C)CCC(N=[N+]=[N-])CC12 (stereo not shown) [compound 7]
EC50 (GST-fusion FXR-LBD): 1800 ± 210 nM
Efficacy (GST-fusion FXR-LBD): 57
